The target in the test is T1, human TLR9 (Homo sapiens, UniProt Q9NR96).
T1 construct: host or cells: HEK293 (HEK-Blue hTLR9)
T1 sequence (Q9NR96 26-1032): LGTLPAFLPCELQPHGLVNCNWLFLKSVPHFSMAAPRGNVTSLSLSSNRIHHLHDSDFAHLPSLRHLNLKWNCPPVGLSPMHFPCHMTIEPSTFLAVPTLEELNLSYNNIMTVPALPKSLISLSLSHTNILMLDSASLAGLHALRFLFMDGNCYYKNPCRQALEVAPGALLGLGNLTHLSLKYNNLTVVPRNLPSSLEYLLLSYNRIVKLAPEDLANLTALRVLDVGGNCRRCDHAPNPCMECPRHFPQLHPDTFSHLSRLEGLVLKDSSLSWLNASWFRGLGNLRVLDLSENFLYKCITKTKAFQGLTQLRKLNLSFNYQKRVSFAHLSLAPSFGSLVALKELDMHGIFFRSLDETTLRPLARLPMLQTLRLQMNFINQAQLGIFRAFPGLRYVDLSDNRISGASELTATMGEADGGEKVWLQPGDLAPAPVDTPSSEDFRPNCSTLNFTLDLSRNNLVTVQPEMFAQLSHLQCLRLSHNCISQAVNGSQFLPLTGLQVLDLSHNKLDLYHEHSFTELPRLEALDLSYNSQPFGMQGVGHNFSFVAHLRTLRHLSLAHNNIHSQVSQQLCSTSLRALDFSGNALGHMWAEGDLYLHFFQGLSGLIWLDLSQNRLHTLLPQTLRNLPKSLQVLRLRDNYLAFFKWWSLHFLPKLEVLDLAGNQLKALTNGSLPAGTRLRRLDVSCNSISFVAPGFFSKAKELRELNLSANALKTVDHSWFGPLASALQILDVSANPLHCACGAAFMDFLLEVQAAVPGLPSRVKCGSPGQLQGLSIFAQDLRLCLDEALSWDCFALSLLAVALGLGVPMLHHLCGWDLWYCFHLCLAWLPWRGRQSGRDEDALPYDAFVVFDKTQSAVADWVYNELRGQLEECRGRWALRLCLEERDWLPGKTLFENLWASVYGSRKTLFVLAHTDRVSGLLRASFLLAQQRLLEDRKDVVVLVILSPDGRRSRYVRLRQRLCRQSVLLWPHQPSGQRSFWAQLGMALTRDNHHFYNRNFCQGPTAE
Briefly: HEK293-Blue-hTLR-9 cells assay (SEAP reporter, ODN2006 stimulation). Type of test: cell-based. The following applies: HEK293-Blue-hTLR9 cells, ODN2006 ligand, 20 hrs incubation; read-out: HEK/hTLR9 IC50. An excerpt: HEK293-Blue-hTLR-9 Cells Assay:
A stable HEK293-Blue-hTLR-9 cell line was purchased from InvivoGen (Cat. #: hkb-htlr9, San Diego, Calif., USA). These cells were originally designed for studying the stimulation of human TLR9 by monitoring the activation of NF-κB. A SEAP (secreted embryonic alkaline phosphatase) reporter gene was placed under the control of the IFN-β minimal promoter fused to five NF-κB and AP-1-binding sites. The SEAP was induced by activating NF-κB and AP-1 via stimulating HEK-Blue hTLR9 cells with TLR9 ligands. Therefore the reporter expression was declined by TLR9 antagonist under the stimulation of a ligand, such as ODN2006 (Cat. #: tlrl-2006-1, Invivogen, San Diego, Calif., USA), for incubation of 20 hrs. The cell culture supernatant SEAP reporter activity was determined using QUANTI-Blue™ kit (Cat. #: rep-qb1, Invivogen, San Diego, Calif., USA) at a wavelength of 640 nm, a detection medium that turns purple or blue in the presence of alkaline phosphatase.
HEK293-Blue-hTLR9 cells were incubated at a density of 250,000˜450,000 cells/mL in a volume of 170 μL in a 96-well plate in Dulbecco's Modified Eagle's medium (DMEM) containing 4.5 g/L glucose, 50 U/mL penicillin, […], 2 mM L-glutamine, 10% (v/v) heat-inactivated fetal bovine serum with addition of 20 μL test compound in a serial dilution in the presence of final DMSO at 1% and 10 μL of 20 uM ODN2006 in above DMEM, perform incubation under 37° C. in a CO2 incubator for 20 hrs. Then 20 μL of the supernatant from each well was incubated with 180 μL Quanti-blue substrate solution at 37° C. for 2 h and the absorbance was read at 620˜655 nm using a spectrophotometer. The signaling pathway that TLR9 activation leads to downstream NF-κB activation has been widely accepted, and therefore similar reporter assay was modified for evaluating TLR9 antagonist.
`C[C@@H]1CN(c2cc(=O)n(C)c3ncccc23)C[C@@H]2c3ccc(N4CC(C)(N)C4)cc3CN12` [Example 1, 4-[(4R,10bS)-8-(3-amino-3-methyl-azetidin-1-yl)-4-methyl-3,4,6,10b-tetrahydro-1H-pyrazino[2,1-a]isoindol-2-yl]-1-methyl-1,8-naphthyridin-2-one]: the IC50 amounted to 262 nM.

For the molecule `C[C@@H]1CN(c2cc(=O)n(C)c3ncccc23)C[C@@H]2c3ccc(N4CC5(CN(C)C5)C4)cc3CN12` [Example 2, 4-[(4R,10bS)-4-methyl-8-(6-methyl-2,6-diazaspiro[3.3]heptan-2-yl)-3,4,6,10b-tetrahydro-1H-pyrazino[2,1-a]isoindol-2-yl]-1-methyl-1,8-naphthyridin-2-one], the IC50 is 136 nM.

In the case of `C[C@@H]1CN(c2cc(=O)n(C)c3ncccc23)C[C@@H]2c3ccc(N4CC5(CNCCO5)C4)cc3CN12` [Example 3, 4-[(4R,10bS)-4-methyl-8-(5-oxa-2,8-diazaspiro[3.5]nonan-2-yl)-3,4,6,10b-tetrahydro-1H-pyrazino[2,1-a]isoindol-2-yl]-1-methyl-1,8-naphthyridin-2-one], the IC50 stood at 325 nM. Take `C[C@@H]1CN(c2cc(=O)n(C)c3ncccc23)C[C@@H]2c3ccc(N4CC[C@@](C)(N)C4)cc3CN12` [Example 4, 4-[(4R,10bS)-8-[(3R)-3-amino-3-methyl-pyrrolidin-1-yl]-4-methyl-3,4,6,10b-tetrahydro-1H-pyrazino[2,1-a]isoindol-2-yl]-1-methyl-1,8-naphthyridin-2-one]: the IC50 was determined as 127 nM. With `CO[C@@H]1CN(c2ccc3c(c2)CN2[C@H](C)CN(c4cc(=O)n(C)c5ncccc45)C[C@H]32)C[C@H]1N` [Example 5, 4-[(4R,10bS)-8-[(3R,4R)-3-amino-4-methoxy-pyrrolidin-1-yl]-4-methyl-3,4,6,10b-tetrahydro-1H-pyrazino[2,1-a]isoindol-2-yl]-1-methyl-1,8-naphthyridin-2-one] the figure was 257 nM.

As for `C[C@@H]1CN(c2cc(=O)n(C)c3ncccc23)C[C@@H]2c3ccc(N4C[C@H]5NCCO[C@@H]5C4)cc3CN12` [Example 6, 4-[(4R,10bS)-8-[(4aR,7aR)-3,4,4a,5,7,7a-hexahydro-2H-pyrrolo[3,4-b][1,4]oxazin-6-yl]-4-methyl-3,4,6,10b-tetrahydro-1H-pyrazino[2,1-a]isoindol-2-yl]-1-methyl-1,8-naphthyridin-2-one], the IC50 came to 197 nM. The value for `C[C@@H]1CN(c2cc(=O)n(C)c3ncccc23)C[C@@H]2c3ccc(N4C[C@@H](N)[C@@H](F)C4)cc3CN12` [Example 7, 4-[(4R,10bS)-8-[(3R,4S)-3-amino-4-fluoro-pyrrolidin-1-yl]-4-methyl-3,4,6,10b-tetrahydro-1H-pyrazino[2,1-a]isoindol-2-yl]-1-methyl-1,8-naphthyridin-2-one] was 247 nM. With `CO[C@H]1CN(c2ccc3c(c2)CN2[C@H](C)CN(c4cc(=O)n(C)c5ncccc45)C[C@H]32)CC[C@@H]1N` [Example 8, 4-[(4R,10bS)-8-[(3S,4S)-4-amino-3-methoxy-1-piperidyl]-4-methyl-3,4,6,10b-tetrahydro-1H-pyrazino[2,1-a]isoindol-2-yl]-1-methyl-1,8-naphthyridin-2-one] the figure was 226 nM. The value for `CO[C@H]1CCN(c2ccc3c(c2)CN2[C@H](C)CN(c4cc(=O)n(C)c5ncccc45)C[C@H]32)C[C@@H]1N` [Example 9, 4-[(4R,10bS)-8-[(3S,4S)-3-amino-4-methoxy-1-piperidyl]-4-methyl-3,4,6,10b-tetrahydro-1H-pyrazino[2,1-a]isoindol-2-yl]-1-methyl-1,8-naphthyridin-2-one] was 266 nM. Consider `COC[C@@H]1CNCCN1c1ccc2c(c1)CN1[C@H](C)CN(c3cc(=O)n(C)c4ncccc34)C[C@H]21` [Example 10, 4-[(4R,10bS)-8-[(2S)-2-(methoxymethyl)piperazin-1-yl]-4-methyl-3,4,6,10b-tetrahydro-1H-pyrazino[2,1-a]isoindol-2-yl]-1-methyl-1,8-naphthyridin-2-one], for which the IC50 amounted to 248 nM. The value for `C[C@@H]1CN(c2cc(=O)n(C)c3ncccc23)C[C@@H]2c3ccc(N4CCOC5(CNC5)C4)cc3CN12` [Example 11, 4-[(4R,10bS)-4-methyl-8-(5-oxa-2,8-diazaspiro[3.5]nonan-8-yl)-3,4,6,10b-tetrahydro-1H-pyrazino[2,1-a]isoindol-2-yl]-1-methyl-1,8-naphthyridin-2-one] was 88 nM; that for `C[C@@H]1CN(c2cc(=O)n(C)c3ncccc23)C[C@@H]2c3ccc(N4CCNCC4)cc3CN12` [Example 12, 4-[(4R,10bS)-4-methyl-8-piperazin-1-yl-3,4,6,10b-tetrahydro-1H-pyrazino[2,1-a]isoindol-2-yl]-1-methyl-1,8-naphthyridin-2-one] was 192 nM.

With `C[C@@H]1CN(c2cc(=O)n(C)c3ncccc23)C[C@@H]2c3ccc(N4CCN[C@@H](C)C4)cc3CN12` [Example 13, 4-[(4R,10bS)-4-methyl-8-[(3S)-3-methylpiperazin-1-yl]-3,4,6,10b-tetrahydro-1H-pyrazino[2,1-a]isoindol-2-yl]-1-methyl-1,8-naphthyridin-2-one], the IC50 stood at 186 nM. The value for `C[C@@H]1CN(c2ccc3c(c2)CN2[C@H](C)CN(c4cc(=O)n(C)c5ncccc45)C[C@H]32)CCN1` [Example 14, 4-[(4R,10bS)-4-methyl-8-[(3R)-3-methylpiperazin-1-yl]-3,4,6,10b-tetrahydro-1H-pyrazino[2,1-a]isoindol-2-yl]-1-methyl-1,8-naphthyridin-2-one] was 144 nM. On to `C[C@@H]1CN(c2cc(=O)n(C)c3ncccc23)C[C@@H]2c3ccc(N4CCC[C@](C)(N)C4)cc3CN12` [Example 15, 4-[(4R,10bS)-8-[(3S)-3-amino-3-methyl-1-piperidyl]-4-methyl-3,4,6,10b-tetrahydro-1H-pyrazino[2,1-a]isoindol-2-yl]-1-methyl-1,8-naphthyridin-2-one], for which the IC50 came to 84 nM. Turning to `C[C@@H]1CN(c2cc(=O)n(C)c3ncccc23)C[C@@H]2c3ccc(N4CCC[C@@H](N)C4)cc3CN12` [Example 16, 4-[(4R,10bS)-8-[(3R)-3-amino-1-piperidyl]-4-methyl-3,4,6,10b-tetrahydro-1H-pyrazino[2,1-a]isoindol-2-yl]-1-methyl-1,8-naphthyridin-2-one], the IC50 came out at 101 nM.

For the molecule `C[C@@H]1CNCCN1c1ccc2c(c1)CN1[C@H](C)CN(c3cc(=O)n(C)c4ncccc34)C[C@H]21` [Example 17, 4-[(4R,10bS)-4-methyl-8-[(2R)-2-methylpiperazin-1-yl]-3,4,6,10b-tetrahydro-1H-pyrazino[2,1-a]isoindol-2-yl]-1-methyl-1,8-naphthyridin-2-one], the IC50 amounted to 222 nM. With `C[C@@H]1CN(c2cc(=O)n(C)c3ncccc23)C[C@@H]2c3ccc(N4CCC(C)(N)CC4)cc3CN12` [Example 18, 4-[(4R,10bS)-8-(4-amino-4-methyl-1-piperidyl)-4-methyl-3,4,6,10b-tetrahydro-1H-pyrazino[2,1-a]isoindol-2-yl]-1-methyl-1,8-naphthyridin-2-one] the figure was 163 nM.

(Values after patent US20230041743A1, “1,8-NAPHTHYRIDIN-2-ONE COMPOUNDS FOR THE TREATMENT OF AUTOIMMUNE DISEASE” (Hoffmann-La Roche Inc., priority 2019, published 2023).)
